Earlier results, collected in patent publication US6653081B2, “Methods for monitoring antiretroviral therapy and guiding therapeutic decision in the treatment of HIV/AIDS” (ViroLogic, Inc., priority 2000, dated 2003).

Tested on: codon 181 mutant HIV-1
Settings: cited from earlier work

Row | Structure (SMILES) | susceptibility / activity in the presence of the Y181C mutation
1 | CCc1cc(CCc2nc3ccccc3o2)c(=O)[nH]c1C [L-696,229] | reduced susceptibility
2 | CCc1cc(NCc2nc3c(Cl)ccc(Cl)c3o2)c(O)nc1C [L-697,661] | reduced susceptibility
